Data set [1] concerns U937 cells. Kind of data set: U937 cell necroptosis assay (TNFa + zVAD, CellTiter-Glo recovery). The data set is classed as cell-based. The following applies: Homo sapiens, U-937, 18 h, TNFa 2 ng/mL + zVAD-fmk, read-out: U937 Zvad TNF CTG Recovery, U937, TNFa + zVAD (IC50). The procedure, abridged:
(§1)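 Human U937 (50K/well, 60 uM zVAD-fmk medium, plated same day) or murine L929 (10K/well, plated 18 h, then 40 uM zVAD-fmk medium) were grown in RPMI with 10% FBS. Both were pretreated with compound for 1 h at 37 °C before TNFa at 2 ng/mL final. Viability was read by CellTiter-Glo luminescence after 18 h.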
In general terms: In ATP-based viability assays light output follows the ATP content of the culture.

Data set [2] can be described thus: Brain penetration: free brain/plasma ratio in in vivo pharmacokinetic studies. The following applies: brain and plasma (unbound); in vivo pharmacokinetic studies in rodents; read-out: free brain/plasma ratio (Bu/Pu). As to the method:
Female C57BL/6 mice are randomly grouped and weighed on Day −1. On the day of the study (Day 0), mice are administered vehicle or test article by oral gavage. Fifteen minutes after oral administration of test agents, each mouse is administered an intraperitoneal (IP) injection of solution containing recombinant human tumor necrosis factor alpha (TNF-a, 25.0 μg) and zVAD-FMK (200 μg). Body temperature is measured at 0 hours (before IP injections) and every hour via rectal probe temperature measuring device. Three (3) hours after IP injections of TNF-a and zVAD/FMK, mice are euthanized by CO2 asphyxiation and blood is collected via cardiac puncture. Serum and plasma are harvested for determination of cytokine and compound levels, respectively. Separate groups of mice (satellite mice) are included for the determination of compound levels in plasma at the time of administration of TNFa/zVAD-FMK. […] Brain penetration may be assessed by evaluating free brain/plasma ratio (Bu/Pu) as measured in vivo pharmacokinetic studies in rodents. […] In this method, the passive membrane permeability (Papp) and the P-gp (P-glycoprotein) substrate efflux potential are determined using a MDCKII-MDR1 cell line as an in vitro model of the effective permeability of a compound through the BBB.

For data set [3], the system named is L929 cells. Kind of data set: L929 cell necroptosis assay (TNFa + zVAD, CellTiter-Glo recovery). The format is cell-based, murine. The following applies: Mus musculus, L929, 18 h, TNFa 2 ng/mL + zVAD-fmk, read-out: L929-CTG-recovery, L929, TNFa + zVAD (IC50). The procedure, abridged:
as §1

The target of data set [4] is T1, RIPK1 (Homo sapiens, UniProt Q13546).
T1 sequence (Q13546 1-671): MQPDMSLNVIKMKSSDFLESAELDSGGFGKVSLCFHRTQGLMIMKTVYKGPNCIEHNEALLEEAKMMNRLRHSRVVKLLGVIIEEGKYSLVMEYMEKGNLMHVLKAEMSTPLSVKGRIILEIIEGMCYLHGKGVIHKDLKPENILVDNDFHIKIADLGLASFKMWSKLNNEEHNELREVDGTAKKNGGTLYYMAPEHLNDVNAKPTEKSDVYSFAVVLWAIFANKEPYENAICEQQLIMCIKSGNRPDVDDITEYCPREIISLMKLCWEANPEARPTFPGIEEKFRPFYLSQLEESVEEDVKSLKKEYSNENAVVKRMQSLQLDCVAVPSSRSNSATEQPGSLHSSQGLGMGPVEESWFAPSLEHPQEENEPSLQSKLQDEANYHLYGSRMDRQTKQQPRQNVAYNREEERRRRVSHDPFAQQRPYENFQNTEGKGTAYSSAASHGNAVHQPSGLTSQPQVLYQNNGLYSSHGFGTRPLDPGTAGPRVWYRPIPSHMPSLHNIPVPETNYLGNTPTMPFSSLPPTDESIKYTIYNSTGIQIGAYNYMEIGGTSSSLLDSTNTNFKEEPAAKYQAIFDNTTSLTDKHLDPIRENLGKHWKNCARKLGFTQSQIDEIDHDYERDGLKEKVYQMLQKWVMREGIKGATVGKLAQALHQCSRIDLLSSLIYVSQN
Description: RIPK1 ADP-Glo biochemical kinase assay. The following applies: read-out: RIPK1 ADP-Glo Kinase (IC50). The procedure, abridged:
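RIPK1 at 31 ng/well in Tris pH 7.4 buffer with MgCl2, BSA, DTT and MnCl2, reacted with compounds (duplicate) for 30 min at 30 °C. ADP formed detected by ADP-Glo: 40 min stop/depletion, then 30 min detection reagent at room temperature; luminescence read.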
In general terms: ADP-Glo turns the ADP formed in a reaction into a luminescent signal.

`Cc1cccc(Cc2cnn(C(=O)N[C@H]3CCc4ccc(C#CC5(O)COC5)cc4N(C)C3=O)c2)n1` [I-120, (S)—N-(8-((3-Hydroxyoxetan-3-yl)ethynyl)-1-methyl-2-oxo-2,3,4,5-tetrahydro-1H-benzo[b]azepin-3-yl)-4-((6-methylpyridin-2-yl)methyl)-1H-pyrazole-1-carboxamide]: the IC50 in data set [1] came out at 9.5 nM; in data set [3], 233 nM; in data set [4], 17.2 nM. The Kp,uu (unbound brain/plasma ratio) in data set [2] came out at 11.
In the case of `Cc1cccc(Cc2cnn(C(=O)N[C@H]3COc4ccc(C#CC5CCOCC5)cc4N(C)C3=O)c2)n1` [I-104, (S)—N-(5-Methyl-4-oxo-7-((tetrahydro-2H-pyran-4-yl)ethynyl)-2,3,4,5-tetrahydrobenzo[b][1,4]oxazepin-3-yl)-4-((6-methylpyridin-2-yl)methyl)-1H-pyrazole-1-carboxamide], the IC50 stood at 7.3 nM in data set [1], 190 nM in data set [3] and 16.4 nM in data set [4]. Besides, the Kp,uu (unbound brain/plasma ratio) in data set [2] worked out at 1.7.
On to `CN1C(=O)[C@@H](NC(=O)c2cc(Oc3cccnc3F)ccn2)COc2ccc(C#CC3COC3)cc21` [I-55, (S)-4-((2-fluoropyridin-3-yl)oxy)-N-(5-methyl-7-(oxetan-3-ylethynyl)-4-oxo-2,3,4,5-tetrahydrobenzo[b][1,4]oxazepin-3-yl)picolinamide], for which the IC50 in data set [1] was 1.2 nM; in data set [3], 155 nM; in data set [4], 14.3 nM.
The like results for `Cc1ncccc1Oc1ccnc(C(=O)N[C@H]2COc3ccc(C#CC4(O)CCC4)cc3N(C)C2=O)c1` [I-82, (S)—N-(7-((1-hydroxycyclobutyl)ethynyl)-5-methyl-4-oxo-2,3,4,5-tetrahydrobenzo[b][1,4]oxazepin-3-yl)-4-((2-methylpyridin-3-yl)oxy)picolinamide] were, in that order, 30.2 nM, 4480 nM and 29.4 nM.
The like results for `CN1C(=O)[C@@H](NC(=O)n2cc(Cc3cccc(F)n3)cn2)CCc2ccc(C#CC(C)(C)O)cc21` [I-114, (S)-4-((6-Fluoropyridin-2-yl)methyl)-N-(8-(3-hydroxy-3-methylbut-1-yn-1-yl)-1-methyl-2-oxo-2,3,4,5-tetrahydro-1H-benzo[b]azepin-3-yl)-1H-pyrazole-1-carboxamide] were, in that order, 1 nM, 51.2 nM and 19.4 nM.
For `CN1C(=O)[C@@H](NC(=O)c2cc(Oc3ccc(F)nc3)ccn2)COc2ccc(C#CC3(O)COC3)cc21` [I-5, (S)-4-((6-fluoropyridin-3-yl)oxy)-N-(7-((3-hydroxyoxetan-3-yl)ethynyl)-5-methyl-4-oxo-2,3,4,5-tetrahydrobenzo[b][1,4]oxazepin-3-yl)picolinamide], the half-inhibitory concentration (IC50) stood at 34.9 nM in data set [1], 2020 nM in data set [3] and 24.6 nM in data set [4].
The like results for `Cc1nc(Cc2ccnc(C(=O)N[C@H]3COc4ccc(C#CC(C)(C)O)cc4N(C)C3=O)c2)cs1` [I-65, (S)—N-(7-(3-hydroxy-3-methylbut-1-yn-1-yl)-5-methyl-4-oxo-2,3,4,5-tetrahydrobenzo[b][1,4]oxazepin-3-yl)-4-((2-methylthiazol-4-yl)methyl)picolinamide] were, in that order, 43.4 nM, 76.3 nM and 18.1 nM.
In the case of `CN1C(=O)[C@@H](NC(=O)n2cc(Cc3cccc(F)n3)cn2)CCc2ccc(C#CC3(O)COC3)cc21` [I-113, (S)-4-((6-Fluoropyridin-2-yl)methyl)-N-(8-((3-hydroxyoxetan-3-yl)ethynyl)-1-methyl-2-oxo-2,3,4,5-tetrahydro-1H-benzo[b]azepin-3-yl)-1H-pyrazole-1-carboxamide], the IC50 came out at 1.3 nM in data set [1], 37 nM in data set [3] and 11.8 nM in data set [4].
Take `CN1C(=O)[C@@H](NC(=O)c2cc(Cc3cccc(F)n3)ccn2)COc2ccc(C#CC3COC3)cc21` [I-84, (S)-4-((6-fluoropyridin-2-yl)methyl)-N-(5-methyl-7-(oxetan-3-ylethynyl)-4-oxo-2,3,4,5-tetrahydrobenzo[b][1,4]oxazepin-3-yl)picolinamide]: the IC50 in data set [1] turned out to be 9.4 nM; in data set [3] it was 768 nM; in data set [4] it was 19.3 nM.

In general, IC50 refers to the concentration needed to halve the response being measured.
